For 20 compounds, MIC results are on record in ChEMBL document CHEMBL2417492, “Structural studies of β-hairpin peptidomimetic antibiotics that target LptD in Pseudomonas sp” (2013).

SMILES strings stand for the structures. Converted amounts (≈) assume the structure as drawn.

In general, MIC refers to the lowest concentration found to suppress growth.

This test relates to Pseudomonas aeruginosa. As to the kind of experiment: Antibacterial activity against Pseudomonas aeruginosa ATCC 27853 assessed as growth inhibition. It counts as functional.
With `CC(C)C[C@@H]1NC(=O)[C@H](C)NC(=O)[C@H]([C@@H](C)O)NC(=O)[C@@H]2CCCN2C(=O)[C@H]2CCCN2C(=O)[C@H](CCCCN)NC(=O)[C@H](C)NC(=O)[C@H](CCCCN)NC(=O)[C@H](CCCCN)NC(=O)[C@H](Cc2c[nH]c3ccccc23)NC(=O)[C@H](CCCNC(=N)N)NC(=O)[C@H](CCCNC(=N)N)NC(=O)[C@H](CCCCN)NC(=O)[C@H](CCCCN)NC1=O`, the MIC is over 16 µg/mL.
With `CC(C)C[C@@H]1NC(=O)[C@H](Cc2c[nH]c3ccccc23)NC(=O)[C@H]([C@@H](C)O)NC(=O)[C@@H]2CCCN2C(=O)[C@H]2CCCN2C(=O)[C@H](CCCCN)NC(=O)[C@H](C)NC(=O)[C@H](CCCCN)NC(=O)[C@H](CCCCN)NC(=O)[C@H](Cc2ccccc2)NC(=O)[C@H](CCCNC(=N)N)NC(=O)[C@H](CCCNC(=N)N)NC(=O)[C@H](CCCCN)NC(=O)[C@H](CCCCN)NC1=O`, the MIC turned out to be 0.1 µg/mL (≈ 0.0566 µM).
As for `CC(C)C[C@@H]1NC(=O)[C@H](Cc2c[nH]c3ccccc23)NC(=O)[C@H]([C@@H](C)O)NC(=O)[C@@H]2CCCN2C(=O)[C@H]2CCCN2C(=O)[C@H](CCCCN)NC(=O)[C@H](C)NC(=O)[C@H](CCCCN)NC(=O)[C@H](CCCCN)NC(=O)[C@H](Cc2c[nH]c3ccccc23)NC(=O)[C@H](C)NC(=O)[C@H](CCCNC(=N)N)NC(=O)[C@H](CCCCN)NC(=O)[C@H](CCCCN)NC1=O`, the figure is 0.06 µg/mL (≈ 0.0349 µM); as for `CC(C)C[C@@H]1NC(=O)[C@H](Cc2c[nH]c3ccccc23)NC(=O)[C@H]([C@@H](C)O)NC(=O)[C@@H]2CCCN2C(=O)[C@H]2CCCN2C(=O)[C@H](CCCCN)NC(=O)[C@H](C)NC(=O)[C@H](CCCCN)NC(=O)[C@H](CCCCN)NC(=O)[C@H](Cc2c[nH]c3ccccc23)NC(=O)[C@H](CCCNC(=N)N)NC(=O)[C@H](CCCNC(=N)N)NC(=O)[C@H](CCCCN)NC(=O)[C@H](CCCCN)NC1=O`, 0.01 µg/mL (≈ 0.00554 µM).
Next, `CC(C)C[C@@H]1NC(=O)[C@H](Cc2c[nH]c3ccccc23)NC(=O)[C@H]([C@@H](C)O)NC(=O)[C@@H]2CCCN2C(=O)[C@H]2CCCN2C(=O)[C@H](CCCCN)NC(=O)[C@H](C)NC(=O)[C@H](CCN)NC(=O)[C@H](CCCN)NC(=O)[C@H](Cc2c[nH]c3ccccc23)NC(=O)[C@H](CCCNC(=N)N)NC(=O)[C@@H](CCCCN)NC(=O)[C@H](CCCN)NC(=O)[C@H](CCN)NC1=O`: 0.01 µg/mL (≈ 0.00591 µM).
`CC(C)C[C@@H]1NC(=O)[C@H](CC(C)C)NC(=O)[C@H]([C@@H](C)O)NC(=O)[C@@H]2CCCN2C(=O)[C@H]2CCCN2C(=O)[C@H](CCCCN)NC(=O)[C@H](C)NC(=O)[C@H](CCCCN)NC(=O)[C@H](CCCCN)NC(=O)[C@H](Cc2c[nH]c3ccccc23)NC(=O)[C@H](CCCNC(=N)N)NC(=O)[C@H](CCCNC(=N)N)NC(=O)[C@H](CCCCN)NC(=O)[C@H](CCCCN)NC1=O`: the minimum inhibitory concentration (MIC) was determined as 1 µg/mL (≈ 0.577 µM).
As for `C[C@@H]1NC(=O)[C@H](CCCCN)NC(=O)[C@H](CCCCN)NC(=O)[C@H](Cc2c[nH]c3ccccc23)NC(=O)[C@H](CCCNC(=N)N)NC(=O)[C@H](CCCNC(=N)N)NC(=O)[C@H](CCCCN)NC(=O)[C@H](CCCCN)NC(=O)[C@H](C)NC(=O)[C@H](Cc2c[nH]c3ccccc23)NC(=O)[C@H]([C@@H](C)O)NC(=O)[C@@H]2CCCN2C(=O)[C@H]2CCCN2C(=O)[C@H](CCCCN)NC1=O`, the figure is 0.1 µg/mL (≈ 0.0567 µM); as for `CC(C)C[C@@H]1NC(=O)[C@H](Cc2c[nH]c3ccccc23)NC(=O)[C@H]([C@@H](C)O)NC(=O)[C@@H]2CCCN2C(=O)[C@H]2CCCN2C(=O)[C@H](CCCCN)NC(=O)[C@H](C)NC(=O)[C@H](CCCCN)NC(=O)[C@H](C)NC(=O)[C@H](Cc2c[nH]c3ccccc23)NC(=O)[C@H](CCCNC(=N)N)NC(=O)[C@H](CCCNC(=N)N)NC(=O)[C@H](CCCCN)NC(=O)[C@H](CCCCN)NC1=O`, 0.06 µg/mL (≈ 0.0343 µM); as for `CC(C)C[C@@H]1NC(=O)[C@H](Cc2c[nH]c3ccccc23)NC(=O)[C@H]([C@@H](C)O)NC(=O)[C@@H]2CCCN2C(=O)[C@H]2CCCN2C(=O)[C@H](C)NC(=O)[C@H](C)NC(=O)[C@H](CCCCN)NC(=O)[C@H](CCCCN)NC(=O)[C@H](Cc2c[nH]c3ccccc23)NC(=O)[C@H](CCCNC(=N)N)NC(=O)[C@H](CCCNC(=N)N)NC(=O)[C@H](CCCCN)NC(=O)[C@H](CCCCN)NC1=O`, 0.03 µg/mL (≈ 0.0172 µM).
Next, `CC(C)C[C@@H]1NC(=O)[C@H](CCCNC(=N)N)NC(=O)[C@H](CCCNC(=N)N)NC(=O)[C@H](CCCCN)NC(=O)[C@H](CCCCN)NC(=O)[C@H](CC(C)C)NC(=O)[C@H](Cc2c[nH]c3ccccc23)NC(=O)[C@H]([C@@H](C)O)NC(=O)[C@@H]2CCCN2C(=O)[C@H]2CCCN2C(=O)[C@H](CCCCN)NC(=O)[C@H](C)NC(=O)[C@H](CCCCN)NC(=O)[C@H](CCCCN)NC1=O`: 0.1 µg/mL (≈ 0.0577 µM); `CC(C)C[C@@H]1NC(=O)[C@H](Cc2c[nH]c3ccccc23)NC(=O)[C@H](C)NC(=O)[C@@H]2CCCN2C(=O)[C@H]2CCCN2C(=O)[C@H](CCCCN)NC(=O)[C@H](C)NC(=O)[C@H](CCCCN)NC(=O)[C@H](CCCCN)NC(=O)[C@H](Cc2c[nH]c3ccccc23)NC(=O)[C@H](CCCNC(=N)N)NC(=O)[C@H](CCCNC(=N)N)NC(=O)[C@H](CCCCN)NC(=O)[C@H](CCCCN)NC1=O`: 0.01 µg/mL (≈ 0.00563 µM); `CC(C)C[C@@H]1NC(=O)[C@H](Cc2ccccc2)NC(=O)[C@H]([C@@H](C)O)NC(=O)[C@@H]2CCCN2C(=O)[C@H]2CCCN2C(=O)[C@H](CCCCN)NC(=O)[C@H](C)NC(=O)[C@H](CCCCN)NC(=O)[C@H](CCCCN)NC(=O)[C@H](Cc2c[nH]c3ccccc23)NC(=O)[C@H](CCCNC(=N)N)NC(=O)[C@H](CCCNC(=N)N)NC(=O)[C@H](CCCCN)NC(=O)[C@H](CCCCN)NC1=O`: 0.06 µg/mL (≈ 0.034 µM).
As for `CC(C)C[C@@H]1NC(=O)[C@H](Cc2c[nH]c3ccccc23)NC(=O)[C@H]([C@@H](C)O)NC(=O)[C@@H]2CCCN2C(=O)[C@H]2CCCN2C(=O)[C@H](CCCCN)NC(=O)[C@H](C)NC(=O)[C@H](C)NC(=O)[C@H](CCCCN)NC(=O)[C@H](Cc2c[nH]c3ccccc23)NC(=O)[C@H](CCCNC(=N)N)NC(=O)[C@H](CCCNC(=N)N)NC(=O)[C@H](CCCCN)NC(=O)[C@H](CCCCN)NC1=O`, the figure is 0.06 µg/mL (≈ 0.0343 µM); as for `CC(C)C[C@@H]1NC(=O)[C@H](Cc2c[nH]c3ccccc23)NC(=O)[C@H]([C@@H](C)O)NC(=O)[C@@H]2CCCN2C(=O)[C@H]2CCCN2C(=O)[C@H](CCCCN)NC(=O)[C@H](C)NC(=O)[C@H](CCCCN)NC(=O)[C@H](CCCCN)NC(=O)[C@H](C)NC(=O)[C@H](CCCNC(=N)N)NC(=O)[C@H](CCCNC(=N)N)NC(=O)[C@H](CCCCN)NC(=O)[C@H](CCCCN)NC1=O`, over 16 µg/mL.
`CC(C)C[C@@H]1NC(=O)[C@H](Cc2ccc(O)cc2)NC(=O)[C@H]([C@@H](C)O)NC(=O)[C@@H]2CCCN2C(=O)[C@H]2CCCN2C(=O)[C@H](CCCCN)NC(=O)[C@H](C)NC(=O)[C@H](CCCCN)NC(=O)[C@H](CCCCN)NC(=O)[C@H](Cc2c[nH]c3ccccc23)NC(=O)[C@H](CCCNC(=N)N)NC(=O)[C@H](CCCNC(=N)N)NC(=O)[C@H](CCCCN)NC(=O)[C@H](CCCCN)NC1=O`: the MIC is 0.06 µg/mL (≈ 0.0337 µM).
As for `CC(C)C[C@@H]1NC(=O)[C@H](Cc2c[nH]c3ccccc23)NC(=O)[C@H]([C@@H](C)O)NC(=O)[C@@H]2CCCN2C(=O)[C@H]2CCCN2C(=O)[C@H](CCCCN)NC(=O)[C@H](C)NC(=O)[C@H](CCCCN)NC(=O)[C@H](CCCCN)NC(=O)[C@H](Cc2c[nH]c3ccccc23)NC(=O)[C@H](CCCNC(=N)N)NC(=O)[C@H](CCCNC(=N)N)NC(=O)[C@H](C)NC(=O)[C@H](CCCCN)NC1=O`, the figure is 0.1 µg/mL (≈ 0.0572 µM); as for `CC(C)C[C@@H]1NC(=O)[C@H](Cc2c[nH]c3ccccc23)NC(=O)[C@H]([C@@H](C)O)NC(=O)[C@@H]2CCCN2C(=O)[C@H]2CCCN2C(=O)[C@H](CCCCN)NC(=O)[C@H](C)NC(=O)[C@H](CCCCN)NC(=O)[C@H](CCCCN)NC(=O)[C@H](Cc2ccc(O)cc2)NC(=O)[C@H](CCCNC(=N)N)NC(=O)[C@H](CCCNC(=N)N)NC(=O)[C@H](CCCCN)NC(=O)[C@H](CCCCN)NC1=O`, 0.3 µg/mL (≈ 0.168 µM).
Next, `CC(C)C[C@@H]1NC(=O)[C@H](Cc2c[nH]c3ccccc23)NC(=O)[C@H]([C@@H](C)O)NC(=O)[C@@H]2CCCN2C(=O)[C@H]2CCCN2C(=O)[C@H](CCCCN)NC(=O)[C@H](C)NC(=O)[C@H](CCCCN)NC(=O)[C@H](CCCCN)NC(=O)[C@H](Cc2c[nH]c3ccccc23)NC(=O)[C@H](CCCNC(=N)N)NC(=O)[C@H](C)NC(=O)[C@H](CCCCN)NC(=O)[C@H](CCCCN)NC1=O`: 0.03 µg/mL (≈ 0.0174 µM); `CC(C)C[C@@H]1NC(=O)[C@H](Cc2c[nH]c3ccccc23)NC(=O)[C@H]([C@@H](C)O)NC(=O)[C@H]2CCCN2C(=O)[C@@H]2CCCN2C(=O)[C@H](CCCCN)NC(=O)[C@H](C)NC(=O)[C@H](CCN)NC(=O)[C@H](CCCN)NC(=O)[C@H](Cc2c[nH]c3ccccc23)NC(=O)[C@H](CCCNC(=N)N)NC(=O)[C@@H](CCCCN)NC(=O)[C@H](CCCN)NC(=O)[C@H](CCN)NC1=O`: at least 32 µg/mL.
Next, `CC(C)C[C@@H]1NC(=O)[C@H](Cc2c[nH]c3ccccc23)NC(=O)[C@H]([C@@H](C)O)NC(=O)[C@@H]2CCCN2C(=O)[C@H]2CCCN2C(=O)[C@H](CCCCN)NC(=O)[C@H](C)NC(=O)[C@H](CCCCN)NC(=O)[C@H](CCCCN)NC(=O)[C@H](Cc2c[nH]c3ccccc23)NC(=O)[C@H](CCCNC(=N)N)NC(=O)[C@H](CCCNC(=N)N)NC(=O)[C@H](CCCCN)NC(=O)[C@H](C)NC1=O`: 0.05 µg/mL (≈ 0.0286 µM).
